Test results as given in ChEMBL document CHEMBL6092180 (Eur J Med Chem, 2024).
Values after ≈ are worked out from the molar mass of the structure shown. Active and inactive are the calls of the source. No cut-off for these calls is given here.

Tests used:
Pichia kudriavzevii = experiment: Antifungal activity against Candida krusei GIM 2.1 assessed as inhibition of fungal growth by CLSI M27-A3 guidelines based method; format: functional
[1] = Metabolic stability in human liver microsomes assessed as parent compound remaining preincubated for 10 mins followed by NADPH addition and measured after 60 mins by LC-MS/MS analysis; format: ADME, Microsome; conditions: time 70 min, read-out: Stability
Candida albicans [2] = experiment: Antifungal activity against Candida albicans GIM 2.194 assessed as inhibition of fungal growth by CLSI M27-A3 guidelines based method; format: functional
[3] = Metabolic stability in human liver microsomes assessed as half-life preincubated for 10 mins followed by NADPH addition and measured after 60 mins by LC-MS/MS analysis; format: ADME, Microsome; conditions: time 70 min
Nakaseomyces glabratus = experiment: Antifungal activity against Candida glabrata assessed as inhibition of fungal growth by CLSI M27-A3 guidelines based method; format: functional
Candida tropicalis = experiment: Antifungal activity against Candida tropicalis GIM 2.183 assessed as inhibition of fungal growth by CLSI M27-A3 guidelines based method; format: functional
Cryptococcus neoformans = experiment: Antifungal activity against Cryptococcus neoformans CGMCC 2.3161 assessed as inhibition of fungal growth by CLSI M27-A3 guidelines based method; format: functional
Candida albicans [4] = experiment: Antifungal activity against Candida albicans SC5314 assessed as inhibition of fungal growth by CLSI M27-A3 guidelines based method; format: functional
Candida parapsilosis = experiment: Antifungal activity against Candida parapsilosis GIM 2.190 assessed as inhibition of fungal growth by CLSI M27-A3 guidelines based method; format: functional; conditions: Lodderomyces parapsilosis
Candida albicans [5] = experiment: Antifungal activity against fluconazole and iodiconazole resistant Candida albicans clinical isolate 17# assessed as inhibition of fungal growth by CLSI M27-A3 guidelines based method; format: functional
[6] = Cytotoxicity against human NCI-H460 cells assessed as inhibition of cell growth incubated for 72 hrs by MTT assay; format: toxicity, cell-based
Candida albicans [7] = experiment: Antifungal activity against fluconazole-resistant Candida albicans clinical isolate 103 assessed as inhibition of fungal growth by CLSI M27-A3 guidelines based method; format: functional
Candida albicans [8] = experiment: Fungicidal activity against fluconazole and iodiconazole resistant Candida albicans clinical isolate 17# incubated for 48 hrs by PDA plate based method; format: functional
Candida albicans [9] = experiment: Antifungal activity against fluconazole-resistant Candida albicans clinical isolate 311 assessed as inhibition of fungal growth by CLSI M27-A3 guidelines based method; format: functional
Candida albicans [10] = experiment: Selectivity ratio of MFC for fungicidal activity against Candida albicans SC5314 to MIC80 for antifungal activity against Candida albicans SC5314; format: functional
Candida albicans [11] = experiment: Antibiofilm activity against fluconazole-resistant Candida albicans CPCC400616 assessed as inhibition of metabolic activity of biofilm measured after 24 hrs by XTT reduction assay; format: functional
[12] = Cytotoxicity against HEK293T cells assessed as inhibition of cell growth incubated for 72 hrs by MTT assay; format: toxicity, cell-based, HEK-293T; conditions: human
[13] = Cytotoxicity against human OVCAR-3 cells assessed as inhibition of cell growth incubated for 72 hrs by MTT assay; format: toxicity, cell-based
Aspergillus fumigatus = experiment: Antifungal activity against Aspergillus fumigatus cgmcc 3.7795 assessed as inhibition of fungal growth by CLSI M27-A3 guidelines based method; format: functional
Candida albicans [14] = experiment: Antifungal activity against fluconazole-resistant Candida albicans CaR assessed as inhibition of fungal growth by CLSI M27-A3 guidelines based method; format: functional
Candida albicans [15] = experiment: Antifungal activity against fluconazole-resistant Candida albicans clinical isolate 632 assessed as inhibition of fungal growth by CLSI M27-A3 guidelines based method; format: functional
[16] = Cytotoxicity against HUVEC cells assessed as inhibition of cell growth incubated for 72 hrs by MTT assay; format: toxicity, cell-based; conditions: human
Candida albicans [17] = experiment: Fungicidal activity fluconazole and iodiconazole resistant Candida albicans clinical isolate 17# assessed as decrease in number of fungi at 8 times of MIC measured within 24 hrs by time-kill kinetics assay; format: functional, organism-based
Candida albicans [18] = experiment: Antifungal activity against fluconazole-resistant Candida albicans clinical isolate 904 assessed as inhibition of fungal growth by CLSI M27-A3 guidelines based method; format: functional
Candida albicans [19] = experiment: Antifungal activity against fluconazole-resistant Candida albicans clinical isolate 100 assessed as inhibition of fungal growth by CLSI M27-A3 guidelines based method; format: functional
Candida albicans [20] = experiment: Fungicidal activity against Candida albicans SC5314 incubated for 48 hrs by PDA plate based method; format: functional
Candida albicans [21] = experiment: Antifungal activity against fluconazole-resistant Candida albicans clinical isolate 901 assessed as inhibition of fungal growth by CLSI M27-A3 guidelines based method; format: functional
Candida albicans [22] = experiment: Antibiofilm activity against fluconazole-resistant Candida albicans CPCC400616 assessed as inhibition of metabolic activity of biofilm measured after 6 hrs by XTT reduction assay; format: functional

CN(Cc1ccc(C#Cc2ccccc2)cc1)CC(O)(Cn1cncn1)c1ccc(F)cc1F (configuration not stated)
MIC80 (Pichia kudriavzevii): 0.05 µg/mL (≈ 0.109 µM)
remaining at 1 h [1]: 0.936%
MIC80 (Candida albicans [2]): 0.013 µg/mL (≈ 0.0284 µM)
half-life [3]: 4.39 min
MIC80 (Nakaseomyces glabratus): 0.1 µg/mL (≈ 0.218 µM)
MIC80 (Candida tropicalis): 0.013 µg/mL (≈ 0.0284 µM)
MIC80 (Cryptococcus neoformans): 0.025 µg/mL (≈ 0.0545 µM)
MIC80 (Candida albicans [4]): 0.013 µg/mL (≈ 0.0284 µM)
MIC80 (Candida parapsilosis): 0.013 µg/mL (≈ 0.0284 µM)

CN(Cc1ccc(I)cc1)CC(O)(Cn1cncn1)c1ccc(F)cc1F (configuration not stated)
MIC80 (Candida albicans [5]): 0.25 µg/mL (≈ 0.516 µM)
IC50 at 72 h [6]: > 10 µM
MIC80 (Pichia kudriavzevii): 0.2 µg/mL (≈ 0.413 µM)
MIC80 (Candida albicans [7]): 32 µg/mL (≈ 66.1 µM)
MFC (Candida albicans [8]): 32 µg/mL (≈ 66.1 µM)
MIC80 (Candida albicans [9]): > 64 µg/mL
Selectivity ratio (Candida albicans [10]): >256
remaining at 1 h [1]: 13.1%
MIC80 (Candida albicans [2]): 0.025 µg/mL (≈ 0.0516 µM)
half-life [3]: 20.4 min
MIC50 (Candida albicans [11]): 16 µg/mL (≈ 33 µM)
MIC80 (Nakaseomyces glabratus): 0.2 µg/mL (≈ 0.413 µM)
MIC80 (Candida tropicalis): 0.013 µg/mL (≈ 0.0268 µM)
IC50 at 72 h [12]: > 10 µM
IC50 at 72 h [13]: > 10 µM
MIC80 (Cryptococcus neoformans): 0.1 µg/mL (≈ 0.206 µM)
MIC80 (Aspergillus fumigatus): 0.25 µg/mL (≈ 0.516 µM)
MIC80 (Candida albicans [14]): 2 µg/mL (≈ 4.13 µM)
MIC80 (Candida albicans [4]): 0.013 µg/mL (≈ 0.0268 µM)
MIC80 (Candida albicans [15]): 16 µg/mL (≈ 33 µM)
IC50 at 72 h [16]: > 10 µM
MIC80 (Candida parapsilosis): 0.025 µg/mL (≈ 0.0516 µM)
Activity (Candida albicans [17]): inactive
MIC80 (Candida albicans [18]): 8 µg/mL (≈ 16.5 µM)
MIC80 (Candida albicans [19]): 2 µg/mL (≈ 4.13 µM)
MFC (Candida albicans [20]): 32 µg/mL (≈ 66.1 µM)
MIC80 (Candida albicans [21]): > 64 µg/mL
MIC50 (Candida albicans [22]): 8 µg/mL (≈ 16.5 µM)
